This note sets out measurements from BindingDB's records for doi:10.1016/j.ejmech.2017.04.042 (Laval University, 2017).

Data set [1] addresses T1, Cytochrome P450 1A1 (Homo sapiens, UniProt P04798).
T1 sequence (P04798 whole entry): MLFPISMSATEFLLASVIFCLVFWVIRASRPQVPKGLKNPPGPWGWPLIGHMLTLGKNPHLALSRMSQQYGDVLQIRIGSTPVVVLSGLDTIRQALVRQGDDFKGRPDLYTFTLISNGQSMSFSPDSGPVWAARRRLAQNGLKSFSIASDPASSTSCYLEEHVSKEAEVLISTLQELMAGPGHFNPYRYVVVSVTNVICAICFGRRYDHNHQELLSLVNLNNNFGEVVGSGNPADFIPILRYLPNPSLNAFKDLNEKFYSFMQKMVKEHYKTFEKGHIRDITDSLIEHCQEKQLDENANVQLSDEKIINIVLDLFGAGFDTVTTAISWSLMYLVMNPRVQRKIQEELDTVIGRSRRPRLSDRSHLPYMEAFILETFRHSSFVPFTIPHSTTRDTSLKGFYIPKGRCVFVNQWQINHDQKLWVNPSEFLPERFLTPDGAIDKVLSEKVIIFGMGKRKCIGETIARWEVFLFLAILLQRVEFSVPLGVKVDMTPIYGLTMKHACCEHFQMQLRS
In words: Inhibition of CYP1A1 (unknown origin) expressed in Escherichia coli DH5alpha coexpressing human NADPH-P450 reductase using 7-Ethoxyresorufin as substrate up to 6 mins in presence of NADP+ by spectrofluorometric analysis.

Data set [2] concerns the target T2, Cytochrome P450 1B1 (Homo sapiens, UniProt Q16678).
T2 sequence (Q16678 whole entry): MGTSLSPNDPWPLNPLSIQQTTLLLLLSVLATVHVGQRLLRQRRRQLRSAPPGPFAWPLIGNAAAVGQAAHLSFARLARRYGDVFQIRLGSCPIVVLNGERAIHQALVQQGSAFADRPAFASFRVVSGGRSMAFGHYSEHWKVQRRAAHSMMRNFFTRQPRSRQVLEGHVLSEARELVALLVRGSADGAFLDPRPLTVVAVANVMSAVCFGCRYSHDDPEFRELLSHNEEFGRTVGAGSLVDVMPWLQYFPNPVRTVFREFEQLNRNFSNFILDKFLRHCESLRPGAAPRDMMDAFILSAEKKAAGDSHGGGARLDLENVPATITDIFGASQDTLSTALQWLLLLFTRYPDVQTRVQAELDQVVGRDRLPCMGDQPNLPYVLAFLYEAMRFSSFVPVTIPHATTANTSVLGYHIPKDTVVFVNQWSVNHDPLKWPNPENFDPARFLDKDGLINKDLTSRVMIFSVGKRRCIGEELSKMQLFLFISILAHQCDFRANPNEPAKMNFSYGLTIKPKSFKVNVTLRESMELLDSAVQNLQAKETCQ
The experiment in a line: Inhibition of CYP1B1 (unknown origin) expressed in Escherichia coli DH5alpha coexpressing human NADPH-P450 reductase using 7-Ethoxyresorufin as substrate up to 6 mins in presence of NADP+ by spectrofluorometric analysis.

The target of data set [3] is T3, Cytochrome P450 1A2 (Homo sapiens, UniProt P05177).
T3 sequence (P05177 whole entry): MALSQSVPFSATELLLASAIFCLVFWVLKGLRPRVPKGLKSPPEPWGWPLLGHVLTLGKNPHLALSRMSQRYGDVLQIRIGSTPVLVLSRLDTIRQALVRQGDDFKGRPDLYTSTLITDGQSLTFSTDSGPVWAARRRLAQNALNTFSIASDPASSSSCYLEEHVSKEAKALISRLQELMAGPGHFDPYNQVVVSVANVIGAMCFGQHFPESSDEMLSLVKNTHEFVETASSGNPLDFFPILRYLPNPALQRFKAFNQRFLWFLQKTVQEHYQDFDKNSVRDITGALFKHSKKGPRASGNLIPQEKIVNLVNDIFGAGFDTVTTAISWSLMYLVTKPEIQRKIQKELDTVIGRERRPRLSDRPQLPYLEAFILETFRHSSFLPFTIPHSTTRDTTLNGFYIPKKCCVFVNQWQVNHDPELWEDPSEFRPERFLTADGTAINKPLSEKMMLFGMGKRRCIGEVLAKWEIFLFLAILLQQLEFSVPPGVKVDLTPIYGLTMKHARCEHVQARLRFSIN
In words: ChEBML_1684878. The method, then: Competitive inhibition of human liver microsomes CYP1A2 expressed in supersomes coexpressing NADPH-CYP reductase using 7-Ethoxyresorufin as substrate measured every 5 mins for 30 mins in presence of NADPH by fluorescence assay

Data set [4] concerns the target T2, Cytochrome P450 1B1. In words: Inhibition of human CYP1B1 expressed in supersomes using ethoxyresorufin as substrate after 20 mins in presence of NADP by Dixon plot analysis.

The term IC50 denotes the concentration at which inhibition is half-maximal. For `N#C[Se]Cc1cccc(C[Se]C#N)c1`, the IC50 is 100 nM in data set [1], 130 nM in data set [2] and 200 nM in data set [3].
For orientation: Ki means a measure of affinity in units of concentration, obtained from inhibition or displacement. In the case of `C[C@]12CC[C@H]3[C@@H](CCC4=CC(=O)CC[C@@]43C)[C@@H]1CC[C@@H]2O` [Testosterone, 1], the Ki in data set [4] was determined as 412000 nM.
